Columns and labels:
Plutella xylostella = assay: Insecticidal test on Plutella xylostella (Chinese cabbage seedling dip); format: in vivo; settings: 144 h, 6 days after dip treatment, 25° C., read-out: activity level (corrected mortality rate)
Description: Example 14: Insecticidal Test on Plutella xylostella
The compounds of formula (I), (Ia) and (Ib) of the present invention or salts thereof are separately dispersed in water and diluted to 50 ppm. Ten adults of Plutella xylostella are released onto Chinese cabbage seedlings and allowed to lay eggs thereon. 2 days after the release of the adults, the seedling is dipped in the dispersion for about 30 seconds. After air dried, the seedling is kept in a room at 25° C. 6 days after the dip treatment, the numbers of the dead and alive insects are counted. The corrected mortality rate is calculated according to the following formula and the insecticidal activity was evaluated according to the following criteria.
[formula] • A: the corrected mortality rate is 100% • B: the corrected mortality rate is 90 to 99% • C: the corrected mortality rate is 80 to 89% • D: the corrected mortality rate is 50 to 79%

adult C. felis fleas = assay: Ingestion activity against adult Ctenocephalides felis (artificial membrane feeding, bovine blood); format: in vivo; settings: bovine blood via artificial membrane, motility 48 h post treatment, read-out: EC50 (ingestion activity, % motility reduction)
Description: Example 6: Screening Method to Test Ingestion Activity of Compounds of Formula (I), (Ia) or (Ib) Against Adult Ctenocephalides felis Compounds of formula (I), (Ia) and (Ib) dissolved in 100% DMSO are added to bovine blood and offered via an artificial membrane feeding system to adult C. felis fleas. The motility of fleas is then visually inspected 48 h post treatment. Efficacy is expressed in % motility reduction compared to controls containing blood treated with DMSO only. A dose response series is implemented to determine EC50 values.

[1] = tested on: adult R. sanguineus ticks; assay: Contact activity against adult Rhipicephalus sanguineus (coated vial); format: in vivo; settings: mortality at 48 hours post-treatment, 24° C., 95% relative humidity, read-out: EC50 (contact activity, percentage mortality)
Description: Screening Method to Test Contact Activity of Compounds of Formula (I), (Ia) or (Ib) Against Adult Rhipicephalus Sanguineus Compounds of formula (I), (Ia) and (Tb) formulated in 100% DMSO are diluted in a solution containing acetone and Triton X-100 (0.02%). The resulting formulation is used to coat the inner walls of glass scintillation vials and the filter paper covering the cap of the vial. Once dried, ten adult R. sanguineus ticks are added to the vials. The vials are incubated at 24° C., 95% relative humidity, and 12 hours of light/12 hours of dark until evaluation. Ticks are visually evaluated for mortality at 48 hours post-treatment. Compound efficacy at a given dose is expressed as percentage mortality. A dose response series is implemented to determine EC50 values.

[2] = tested on: 3rd-instar nymphs of Laodelphax striatellus; assay: Insecticidal test on Laodelphax striatellus (rice seedling dip); format: in vivo; settings: 192 h, 8 days after inoculation, 25° C., read-out: activity level (corrected mortality rate)
[3] = tested on: adult Ctenocephalides felis fleas; assay: Contact activity against adult Ctenocephalides felis (coated pipe cleaner in vial); format: in vivo; settings: adult C. felis, mortality at 72 hours post-treatment, 22° C., 80% relative humidity, read-out: EC50 (contact activity, percentage mortality)
Description: Example 4: Screening Method to Test Contact Activity of Compounds of Formula (I), (Ia) or (Ib) Against Adult Ctenocephalides felis
Compounds of formula (I), (Ia) and (Ib) dissolved in 100% DMSO are diluted in acetone to a desired concentration. The resulting formulation is used to coat the fibers of a 0.5-inch-long piece of pipe cleaner placed in a glass scintillation vial. The vial is capped with a rubber gasket and filter paper insert. After the acetone has evaporated, ten adult Ctenocephalides felis fleas are added to each vial. The vials are then incubated at 22° C., 80% relative humidity, and 12 hours of light/12 hours of dark until a visual evaluation for mortality is performed at 72 hours post-treatment. Compound efficacy at a given dose is expressed as percentage mortality and adjusted to remove background mortality observed in control vials containing DMSO only. A dose response series of treated vials is implemented to determine EC50 values.

[4] = tested on: 2nd-instar larvae of Spodoptera litura; assay: whole plant or invertebrate; settings: in Brassica oleracea, foliar, 192 h, read-out: activity level (corrected mortality rate)

Row | SMILES | mortality at 50 ppm (Plutella xylostella) | EC50 (adult C. felis fleas) | EC50 [1] | mortality at 50 ppm [2] | EC50 [3] | mortality at 50 ppm [4]
1 | CCS(=O)(=O)c1cc(-c2nnnn2C)cnc1-c1nc2cc(C(F)(F)C(F)(F)F)cnc2n1C [Compound 15] | 100% | < 10 µM |  |  |  | 
2 | CCS(=O)(=O)c1cc(-c2nnnn2C2CC2)cnc1-c1nc2cc(C(F)(F)C(F)(F)F)nnc2n1C [Compound 1, 6-[5-(1-cyclopropyltetrazol-5-yl)-3-ethylsulfonyl-2-pyridyl]-7-methyl-3-(1,1,2,2,2-pentafluoroethyl)imidazo[4,5-c]pyridazine] | 100% | < 10 µM | 10 to 100 µM | 100% |  | 
3 | CCS(=O)(=O)c1cc(-n2nnnc2C)cnc1-c1nc2cc(C(F)(F)C(F)(F)F)nnc2n1C [Compound 12] |  | 10 to 100 µM |  |  |  | 
4 | CCS(=O)(=O)c1cc(-c2nnn(C(C)C)n2)cnc1-c1nc2cc(C(F)(F)C(F)(F)F)nnc2n1C [Compound 10] | 100% |  | < 10 µM | 100% |  | 
5 | CCS(=O)(=O)c1cc(-c2nnn(C)n2)cnc1-c1nc2cc(C(F)(F)C(F)(F)F)nnc2n1C [Compound 7, 6-[3-ethylsulfonyl-5-(2-methyltetrazol-5-yl)-2-pyridyl]-7-methyl-3-(1,1,2,2,2-pentafluoroethyl)imidazo[4,5-c]pyridazine] |  | 10 to 100 µM | 10 to 100 µM |  | < 10 µM | 
6 | CCS(=O)(=O)c1cc(-c2nnn(C)n2)cnc1-c1nc2cc(S(=O)(=O)C(F)(F)F)nnc2n1C [Compound 9] | 100% | < 10 µM |  | 100% |  | 100%
7 | CCS(=O)(=O)c1cc(-c2nnn(C)n2)cnc1-c1nc2cc(C(F)(F)C(F)(F)F)cnc2n1C [Compound 14] | 100% | < 10 µM | 10 to 100 µM |  | 10 to 100 µM | 100%
8 | CCS(=O)(=O)c1cc(-n2nnnc2C2CC2)cnc1-c1nc2cc(C(F)(F)C(F)(F)F)nnc2n1C [Compound 2, 6-[5-(5-cyclopropyltetrazol-1-yl)-3-ethylsulfonyl-2-pyridyl]-7-methyl-3-(1,1,2,2,2-pentafluoroethyl)imidazo[4,5-c]pyridazine] |  | 10 to 100 µM |  |  |  | 
9 | CCn1nnnc1-c1cnc(-c2nc3cc(C(F)(F)C(F)(F)F)nnc3n2C)c(S(=O)(=O)CC)c1 [Compound 6] |  | < 10 µM |  |  |  | 
10 | CCS(=O)(=O)c1cc(-c2nnn(C)n2)cnc1-c1ncc(C(=O)NCC(F)(F)F)n1C [Compound 8] |  | 10 to 100 µM |  |  |  | 
11 | CCS(=O)(=O)c1cc(-c2nnnn2-c2ccccc2)cnc1-c1nc2cc(C(F)(F)C(F)(F)F)nnc2n1C [Compound 16] | 100% |  |  |  |  | 
12 | CCS(=O)(=O)c1cc(-c2nnnn2C)cnc1-c1nc2cc(C(F)(F)C(F)(F)F)nnc2n1C [Compound 4] |  | < 10 µM |  | 100% |  | 

— patent US20240300957A1, “TETRAZOLE-SUBSTITUTED ETHYL-SULFONE / SULFOXIMINE-PYRIDINE DERIVATIVES” (Boehringer Ingelheim Vetmedica GmbH, priority 2023, published 2024)
